Values quoted from earlier work as cited in patent US20220249506A1, “Meloxicam-Containing Granulated Product” (SSP Co., Ltd., priority 2019, published 2022).

Details: low pH range of pH 5.0 or less

Solubility in water: almost insoluble in water
Structure (SMILES): Cc1cnc(NC(=O)C2=C(O)c3ccccc3S(=O)(=O)N2C)s1 [meloxicam]
